“Also recorded” adds a separate entry of the source. Like-named read-outs stand apart in the source and are kept apart here.

The text below walks through data of patent publication US20200121801A1, “DRUG DELIVERY CONJUGATES CONTAINING UNNATURAL AMINO ACIDS AND METHODS FOR USING” (priority 2012, published 2020).

One data set deals with KB tumors. In words: Inhibition of tumor growth, s.c. KB tumors in nu/nu mice. The class given is in vivo. On the set-up: key to In vivo activity (e): CR = complete response, where tumor volume, as defined herein, during the observation period was zero for all test animals in the group. Particulars: for In vivo activity (e): subcutaneous KB tumor in nu/nu mice. The procedure:
METHOD. Inhibition of Tumor Growth in Mice. […] For tumor cell inoculation, 1×10^6 M109 cells (a syngeneic lung carcinoma) in Balb/c strain, or 1×10^6 KB cells in nu/nu strain, in 100 μL are injected in the subcutis of the dorsal medial area (right axilla).
METHOD. Toxicity as Measured by Weight Loss. The percentage weight change of the test animals is determined on selected days post-tumor inoculation (PTI), and during dosing. The results are graphed.

Another data set deals with KB cells (FR+). The class given is cell-based, Human. The note with it: for In vitro specificity (fold) (d): IC50 competed group vs non-competed group. The method, then:
METHOD. Inhibition of Cellular DNA Synthesis. The compounds described herein are evaluated using an in vitro cytotoxicity assay that predicts the ability of the drug to inhibit the growth of folate receptor-positive cells, such as KB cells, RAW264.7 macrophages, and the like. It is to be understood that the choice of cell type can made on the basis of the susceptibility of those selected cells to the drug that forms the conjugate. The test compounds are comprised of folate linked to a respective chemotherapeutic drug, as prepared according to the processes described herein. The test cells are exposed to varying concentrations of folate-drug conjugate, and also in the absence or presence of at least a 100-fold excess of folic acid to assess activity as being specific to folate receptor mediation.
EXAMPLE. Conjugates of cytotoxic drugs described herein are active against KB cells. The activity is mediated by the folate receptor as indicated by competition experiments using co-administered folic acid. KB cells are exposed for up to 7 h at 37° C. to the indicated concentrations of folate-drug conjugate in the absence or presence of at least a 100-fold excess of folic acid. The cells are then rinsed once with fresh culture medium and incubated in fresh culture medium for 72 hours at 37° C. Cell viability was assessed using a ^3H-thymidine incorporation assay.
METHOD. In vitro activity against various cancer cell lines. IC50 values are generated for various cell lines. Cells are heavily seeded in 24-well Falcon plates and allowed to form nearly confluent monolayers overnight. Thirty minutes prior to the addition of the test compound, spent medium is aspirated from all wells and replaced with fresh folate-deficient RPMI medium (FFRPMI). A subset of wells are designated to receive media containing 100 μM folic acid. The cells in the designated wells are used to determine the targeting specificity. Without being bound by theory it is believed herein that the cytotoxic activity produced by test compounds in the presence of excess folic acid, i.e. where there is competition for FR binding, corresponds to the portion of the total activity that is unrelated to FR-specific delivery. Following one rinse with 1 mL of fresh FFRPMI containing 10% heat-inactivated fetal calf serum, each well receives 1 mL of medium containing increasing concentrations of test compound (4 wells per sample) in the presence or absence of 100 μM free folic acid as indicated. Treated cells are pulsed for 2 h at 37° C., rinsed 4 times with 0.5 mL of media, and then chased in 1 mL of fresh medium up to 70 h. Spent medium is aspirated from all wells and replaced with fresh medium containing 5 μCi/mL ^3H-thymidine. Following a further 2 h 37° C. incubation, cells are washed 3 times with 0.5 mL of PBS and then treated with 0.5 mL of ice-cold 5% trichloroacetic acid per well. After 15 min, the trichloroacetic acid is aspirated and the cell material solubilized by the addition of 0.5 mL of 0.25 N sodium hydroxide for 15 min. A 450 μL aliquot of each solubilized sample is transferred to a scintillation vial containing 3 mL of Ecolume scintillation cocktail and then counted in a liquid scintillation counter. Final results are expressed as the percentage of ^3H-thymidine incorporation relative to untreated controls.

The nature of data set [1]: Plasma stability / free drug release after s.c. dose (EC1496 vs EC0746). The class given is in vivo, rats. The procedure:
METHOD. Human serum stability. Compounds described herein are tested in human serum for stability using conventional protocols and methods. Briefly, test compound is administered to the test animal, such as by subcutaneous injection. The plasma concentration of the conjugate, and optionally one or more metabolites, is monitored over time. The results are graphed to determine Cmax, Tmax, half-life, and AUC for the test compound and metabolites.
EXAMPLE. […] EC1495 and EC0746 (comparator compound) are each administered at 500 nmol/kg by subcutaneous injection. The plasma concentration of the conjugate and the metabolites (aminopterin and aminopterin hydrazide) are monitored over time. […] As also shown in the following table, free drug is released as the parent aminopterin and the hydrazide derivative (EC0470).

Data set [2] has as its target T1, folate receptors (FRs) on KB cells (Homo sapiens, UniProt P15328).
T1 construct: FR-positive KB cells are heavily seeded into 24-well cell culture plates; endogenous in cells; host or cells: KB cells
In words: Relative affinity assay (3H-folic acid competition) on KB cells. Particulars: for Relative Affinity (a) compared to folic acid: folic acid = 1, in 10% serum/FDRPMI. The class given is binding. The procedure:
METHOD. Relative Affinity Assay. The affinity for folate receptors (FRs) relative to folate is determined according to a previously described method (Westerhof, G. R., J. H. Schornagel, et al. (1995) Mol. Pharm. 48: 459-471) with slight modification. Briefly, FR-positive KB cells are heavily seeded into 24-well cell culture plates and allowed to adhere to the plastic for 18 h. Spent incubation media is replaced in designated wells with folate-free RPMI (FFRPMI) supplemented with 100 nM ^3H-folic acid in the absence and presence of increasing concentrations of test article or folic acid. Cells are incubated for 60 min at 37° C. and then rinsed 3 times with PBS, pH 7.4. Five hundred microliters of 1% SDS in PBS, pH 7.4, is added per well. Cell lysates are then collected and added to individual vials containing 5 mL of scintillation cocktail, and then counted for radioactivity. Negative control tubes contain only the ^3H-folic acid in FFRPMI (no competitor). Positive control tubes contain a final concentration of 1 mM folic acid, and CPMs measured in these samples (representing non-specific binding of label) are subtracted from all samples.

A short description of data set [3]: Plasma clearance after s.c. administration. Type of data set: in vivo, Lewis rats. The note with it: EC1669 500 nmol/kg s.c. The method, then: METHOD. Plasma clearance. In vivo studies include a minimum of 3 test animals, such as rats, per time point. Illustratively, female Lewis rats with jugular vein catheters (Harlan, regular rodent diet) are given a single subcutaneous injection of test compound, such as EC1669 at 500 nmol/kg. Whole blood samples (300 μL) are collected at the following time points: 1 min, 10 min, 30 min, 1 h, 2 h, 3 h, 4 h, 8 h, and 12 h after injection. The blood samples are placed into anti-coagulant tubes containing 1.7 mg/mL of K3-EDTA and 0.35 mg/mL of N-maleoyl-beta-alanine (0.35 mg/mL) in a 0.15% acetic acid solution. Plasma samples are obtained by centrifugation for 3 min at ˜2,000 g and stored at −80° C. The amounts of test compound in the plasma and any metabolites, such as EC1669 and its two active metabolites aminopterin (AMT) and AMT hydrazide (EC0470), respectively, are quantified by LC-MS/MS.

[4] abbreviates: IC50 for test compound when competed with excess folic acid, read-out: 50% competition (nM) (c).
[5] abbreviates: as determined by thymidine incorporation, read-out: In vitro IC50 (nM) (b).

T1 sequence (P15328 25-234): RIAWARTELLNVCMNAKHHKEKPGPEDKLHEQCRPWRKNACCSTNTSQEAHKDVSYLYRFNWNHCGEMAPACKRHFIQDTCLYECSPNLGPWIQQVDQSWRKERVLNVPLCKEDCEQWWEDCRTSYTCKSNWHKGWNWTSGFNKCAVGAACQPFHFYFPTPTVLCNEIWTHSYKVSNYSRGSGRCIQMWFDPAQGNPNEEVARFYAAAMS

As for `N=c1[nH]c(N)nc2ncc(CNc3ccc(C(=O)N[C@@H](CCC(=O)NNC(=O)OCCSSC[C@H](NC(=O)[C@H](CCC(=O)NC[C@H](O)[C@@H](O)[C@H](O)[C@H](O)CO)NC(=O)[C@H](CCC(=O)O)NC(=O)[C@H](CCC(=O)NC[C@H](O)[C@@H](O)[C@H](O)[C@H](O)CO)NC(=O)[C@H](CCC(=O)O)NC(=O)[C@H](CCC(=O)NC[C@H](O)[C@@H](O)[C@H](O)[C@H](O)CO)NC(=O)CC[C@H](NC(=O)c4ccc(NCc5cnc6nc(N)[nH]c(=O)c6n5)cc4)C(=O)O)C(=O)O)C(=O)O)cc3)nc12` [EC0531, reference compound], the “In vivo activity (e)” value in the data set with KB tumors was “CR”. The “In vitro specificity (fold) (d)” value in the data set with KB cells (FR+) came out at 237 fold.

As to `CCCC(=O)OCN(C(=O)[C@@H](NC(=O)[C@H]1CCCCN1C)C(C)CC)[C@H](C[C@H](OC(C)=O)c1nc(C(=O)N[C@H](Cc2ccc(O)cc2)C[C@H](C)C(=O)NNC(=O)OCCSSC[C@H](NC(=O)[C@H](CCC(=O)NC[C@H](O)[C@@H](O)[C@H](O)[C@H](O)CO)NC(=O)[C@H](CCC(=O)O)NC(=O)[C@H](CCC(=O)NC[C@H](O)[C@@H](O)[C@H](O)[C@H](O)CO)NC(=O)[C@H](CCC(=O)O)NC(=O)[C@H](CCC(=O)NC[C@H](O)[C@@H](O)[C@H](O)[C@H](O)CO)NC(=O)CC[C@H](NC(=O)c2ccc(NCc3cnc4nc(N)[nH]c(=O)c4n3)cc2)C(=O)O)C(=O)O)cs1)C(C)C` (stereo partly drawn) [EC0746, reference compound], in data set [1] (500 nmol/kg s.c., plasma), the “Free drug released (%): AMT” value is 11.0%, the “Free drug released (%): AMT-hydrazide (EC0470)” value is reported as 7.4% and the “Free drug released (%): Total” value was 18.4%. Also, the “drug released relative to EC1496” value in data set [1] (after a subcutaneous dose in rats) is recorded as “more than 2 fold”.

For `CCCC(=O)OCN(C(=O)[C@@H](NC(=O)[C@H]1CCCCN1C)C(C)CC)[C@H](C[C@@H](OC(C)=O)c1nc(C(=O)N[C@@H](Cc2ccc(O)cc2)C[C@H](C)C(=O)NNC(=O)OCCSSC[C@@H](NC(=O)[C@@H](CC(=O)O)NC(=O)[C@@H](CC(=O)O)NC(=O)[C@@H](CCCNC(=N)N)NC(=O)[C@@H](CC(=O)O)NC(=O)CC[C@@H](NC(=O)c2ccc(NCc3cnc4nc(N)[nH]c(=O)c4n3)cc2)C(=O)O)C(=O)O)cs1)C(C)C` (stereo partly drawn) [EC1299], in the data set on KB tumors, the “In vivo activity (e)” value was “CR”. The “In vitro specificity (fold) (d)” value in the data set with KB cells (FR+) turned out to be 778 fold. Also, the values for the IC50 in the data set with KB cells (FR+) (setting [4]) and in the data set on KB cells (FR+) (setting [5]) were 700 nM and 0.9 nM, respectively. The “Relative Affinity (a) compared to folic acid” value (from here on “Relative Affinity”) in data set [2] is recorded as 0.29.

Consider `CCCC(=O)OCN(C(=O)[C@@H](NC(=O)[C@H]1CCCCN1C)C(C)CC)[C@H](C[C@@H](OC(C)=O)c1nc(C(=O)N[C@@H](Cc2ccc(O)cc2)C[C@H](C)C(=O)NNC(=O)OCCSSC(C)(C)[C@@H](NC(=O)[C@@H](CC(=O)O)NC(=O)[C@@H](CC(=O)O)NC(=O)[C@@H](CCCNC(=N)N)NC(=O)[C@@H](CC(=O)O)NC(=O)CC[C@@H](NC(=O)c2ccc(NCc3cnc4nc(N)[nH]c(=O)c4n3)cc2)C(=O)O)C(=O)O)cs1)C(C)C` (stereo partly drawn) [EC1393], for which the “In vitro specificity (fold) (d)” value in the data set on KB cells (FR+) is 300 fold. Moreover, in data set [2], the “Relative Affinity” value is 0.25.

On to `CCCC(=O)OCN(C(=O)[C@@H](NC(=O)[C@H]1CCCCN1C)C(C)CC)[C@H](C[C@@H](OC(C)=O)c1nc(C(=O)N[C@@H](Cc2ccc(O)cc2)C[C@H](C)C(=O)NNC(=O)OCCSSC[C@@H](NC(=O)[C@H](CC(=O)O)NC(=O)[C@H](CC(=O)O)NC(=O)[C@H](CCCNC(=N)N)NC(=O)[C@H](CC(=O)O)NC(=O)CC[C@H](NC(=O)c2ccc(NCc3cnc4nc(N)[nH]c(=O)c4n3)cc2)C(=O)O)C(=O)O)cs1)C(C)C` (stereo partly drawn) [EC1548], for which the “In vivo activity (e)” value in the data set with KB tumors was “CR”. Moreover, the “In vitro specificity (fold) (d)” value in the data set with KB cells (FR+) is recorded as 78 fold. Further, the IC50 came out at 350 nM in the data set with KB cells (FR+) (setting [4]) and 4.4 nM in the data set on KB cells (FR+) (setting [5]). Besides, in data set [2], the “Relative Affinity” value is recorded as 0.23.

As for `CCCCOCN(C(=O)[C@@H](NC(=O)[C@H]1CCCCN1C)C(C)CC)[C@H](C[C@@H](OC(C)=O)c1nc(C(=O)N[C@@H](Cc2ccc(O)cc2)C[C@H](C)C(=O)NNC(=O)OCCSSC[C@@H](NC(=O)[C@H](CCC(=O)NC[C@H](O)[C@@H](O)[C@H](O)[C@H](O)CO)NC(=O)[C@@H](CCC(=O)O)NC(=O)[C@H](CCC(=O)NC[C@H](O)[C@@H](O)[C@H](O)[C@H](O)CO)NC(=O)[C@@H](CCC(=O)O)NC(=O)[C@H](CCC(=O)NC[C@H](O)[C@@H](O)[C@H](O)[C@H](O)CO)NC(=O)CC[C@@H](NC(=O)c2ccc(NCc3cnc4nc(N)[nH]c(=O)c4n3)cc2)C(=O)O)C(=O)O)cs1)C(C)C` (stereo partly drawn) [EC1663], in the data set on KB tumors (0.5 μmol/kg i.v. TIW, 2 weeks), the “partial responses (test animals)” value is reported as 4/4 and the whole animal toxicity result is “did not exhibit significant host animal toxicity; also recorded: whole animal toxicity was not observed”.

For the molecule `CN(Cc1cnc2nc(N)nc(N)c2n1)c1ccc(C(=O)N[C@@H](CCC(=O)O)C(=O)O)cc1` [methotrexate, reference compound], in data set [2] (in comparison to EC1669), the “binding to the cell surface FRs” value is on record as “poor binding”.

Turning to “aminopterin hydrazide [EC0470, reference compound]”, in data set [3], the “AUC of EC1669-derived metabolite” value was 3.9 nmol·min/mL and the “elimination half-life of EC1669-derived metabolite” value was determined as 1.87 h. Further, the Cmax in data set [3] (plasma, read-out: Cmax of EC1669-derived metabolite) came to 21 nM.

The term Cmax denotes the peak of the concentration-time curve.
